pIC50: −log10 of the molar value.
Columns and labels:
[1] = biological target: 72 kDa type IV collagenase (Homo sapiens, UniProt P08253)
[2] = Oral bioavailability in rat at 5 mg/kg; type: ADME, organism-based; conditions: in vivo
[3] = Clearance in rat at 5 mg/kg, po and 1 mg/kg, iv; type: ADME, organism-based; conditions: in vivo
[4] = Half life in rat at 5 mg/kg, po and 1 mg/kg, iv; type: ADME, organism-based; conditions: in vivo
[5] = AUC in rat at 5 mg/kg, po; type: ADME, organism-based; parameters: dose 5 mg/kg, route oral; conditions: plasma

Chain of 72 kDa type IV collagenase (P08253 whole entry): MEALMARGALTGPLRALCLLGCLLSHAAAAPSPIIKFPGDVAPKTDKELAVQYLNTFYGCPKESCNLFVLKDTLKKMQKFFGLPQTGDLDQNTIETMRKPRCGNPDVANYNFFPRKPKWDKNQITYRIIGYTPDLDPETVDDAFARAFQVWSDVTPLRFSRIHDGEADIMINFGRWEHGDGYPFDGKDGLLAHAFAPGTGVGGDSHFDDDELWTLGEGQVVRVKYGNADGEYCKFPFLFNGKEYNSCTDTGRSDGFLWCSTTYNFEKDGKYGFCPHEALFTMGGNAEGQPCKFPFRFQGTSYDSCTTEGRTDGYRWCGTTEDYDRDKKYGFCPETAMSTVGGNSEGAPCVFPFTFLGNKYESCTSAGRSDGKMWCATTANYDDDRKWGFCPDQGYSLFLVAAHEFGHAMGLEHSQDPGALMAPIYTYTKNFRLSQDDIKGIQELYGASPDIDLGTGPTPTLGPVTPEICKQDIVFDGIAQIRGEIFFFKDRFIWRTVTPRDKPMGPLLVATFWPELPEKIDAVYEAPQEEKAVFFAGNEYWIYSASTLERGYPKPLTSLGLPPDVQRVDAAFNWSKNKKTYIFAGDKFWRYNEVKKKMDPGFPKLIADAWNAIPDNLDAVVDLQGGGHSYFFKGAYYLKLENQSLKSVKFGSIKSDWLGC

For `CC(C)CCN([C@@H](C(=O)NO)C(C)C)S(=O)(=O)c1ccc2c(c1)OCCO2`, the pIC50 [1] was 8.52.

For `CC(C)CN([C@@H](C(=O)NO)C(C)C)S(=O)(=O)c1ccc2ccccc2c1`, the pIC50 [1] was 6.51.

In the case of `CC(C)CCN([C@@H](C(=O)NO)C(C)C)S(=O)(=O)c1ccc2ccccc2c1`, the bioavailability [2] was 23.8%, the clearance [3] was 40 mL/min/kg and the half-life [4] was 5.7 h. The AUC [5] was 1.5 µM·h.

`CC(C)[C@H](C(=O)NO)N(CCc1ccccc1)S(=O)(=O)c1ccc2ccccc2c1` gave a clearance [3] of 55 mL/min/kg and an AUC [5] of 0.45 µM·h.

Compound `CC(C)[C@H](C(=O)NO)N(Cc1ccncc1)S(=O)(=O)c1ccc2ccccc2c1` has a clearance [3] of 122 mL/min/kg and an AUC [5] of 0.32 µM·h.

`CC(C)[C@H](C(=O)NO)N(Cc1cccnc1)S(=O)(=O)c1ccc2ccccc2c1` gave a clearance [3] of 107 mL/min/kg and an AUC [5] of 0.55 µM·h.

With `CC(C)[C@H](C(=O)NO)N(CCN(C)C)S(=O)(=O)c1ccc2ccccc2c1` the clearance [3] was 233 mL/min/kg and the AUC [5] was 0.27 µM·h.

`CC(C)CCN([C@H](CO)C(=O)NO)S(=O)(=O)c1ccc2ccccc2c1` gave a clearance [3] of 45 mL/min/kg and an AUC [5] of 2.4 µM·h.

Compound `CC(C)CCN([C@@H](C(=O)NO)C(C)(C)C)S(=O)(=O)c1ccc2ccccc2c1` has a clearance [3] of 26.7 mL/min/kg and an AUC [5] of 7.2 µM·h.

Work on `CC(C)CCN([C@@H](C(=O)NO)C(C)O)S(=O)(=O)c1ccc2ccccc2c1` (stereo not given in full) yielded a clearance [3] of 55 mL/min/kg and an AUC [5] of 3.1 µM·h.

`CC(C)CCN([C@@H](C(=O)NO)C(C)C)S(=O)(=O)c1ccc2ccccc2n1` gave a clearance [3] of 91.7 mL/min/kg, an AUC [5] of 0.13 µM·h and a pIC50 [1] of 5.69.

In the case of `CC(C)CCN([C@@H](C(=O)NO)C(C)C)S(=O)(=O)c1ccc2ncccc2c1`, the clearance [3] was 18.3 mL/min/kg and the AUC [5] was 4.6 µM·h.

In the case of `CC(C)CCN([C@@H](C(=O)NO)C(C)C)S(=O)(=O)c1ccc2sccc2c1`, the clearance [3] was 118 mL/min/kg, the AUC [5] was 1.5 µM·h and the pIC50 [1] was 7.80.

Compound `CC(C)CCN([C@@H](C(=O)NO)C(C)C)S(=O)(=O)c1ccc2c(c1)CCO2` has a pIC50 [1] of 8.00.

With `COc1ccc(S(=O)(=O)N(CCC(C)C)[C@@H](C(=O)NO)C(C)C)cc1OC` the pIC50 [1] was 4.52.
